Measurements from PubChem BioAssay AID504827 (Southern Research Specialized Biocontainment Screening …, 2011).
The source made the active and inactive calls. How the calls were made is not given here.

How the values were obtained:
[1] = system: RSV-infected cells, CPE inhibition; assay: RSV cytopathic effect inhibition, dose response, cell-based, synthesized compounds, set 10 (AID 504827)
[2] = as above; details: RSV-infected cells, CPE inhibition; at 200 µM (top of the series)

Row | IC50 [1] [µM] | Compound | CPE inhibition [2]
1 | 2.1 | Cc1ccc(NC(=O)[C@@H]2CCCN2S(=O)(=O)c2cccc3cccnc23)c(C)c1 | –
2 | 4.6 | COc1ccc(C)c(NC(=O)[C@@H]2CCCN2S(=O)(=O)c2cccc3cccnc23)c1 | –
3 | – | Cc1cc(NC(=O)[C@@H]2CCCN2S(=O)(=O)c2cccc3cccnc23)n(C(C)(C)C)n1 | 4.92% (inactive)
4 | 9.9 | Cc1ccc(Cn2c(=O)n(Cc3ccc(C(=O)Nc4ccncc4)cc3)c(=O)c3ccccc32)cc1 | –
